Reference: patent US6852332B2, “Liquid vitamin composition” (Adisseo France S.A.S., priority 2000, dated 2005)

Tests used:
Format in all cases: physicochemical
[1] = Stability of second liquid vitamin formulation (Example 1), stored at 40° C., HPLC; conditions: for CONC at T = 0: immediately after preparation; for CONC at T = 1 week / CONC at T = 2 weeks / CONC at T = 3 weeks / CONC at T = 4 weeks: stored at 40° C.
Description: (§1) The stability of each formulation in the composition each was determined over a 4 weeks period. The concentration of vitamin in the formulation was analysed using standard analytical methods (high performance liquid chromatography). The formulations were stored at 40° C. over the test period.

[2] = Stability of third liquid vitamin formulation (vitamin K3, Example 1), stored at 40° C., HPLC
Description: as §1

[3] = Stability of vitamin A in poultry feed (Example 3), 20° C., 80% humidity, HPLC; conditions: four weeks
Description: A standard poultry feed comprising a digestible carbohydrate, a source of fat, a source of amino acid, vitamins and minerals as detailed in Table 3.1 below was used in this example Two sources of vitamin A are compared. Mixture A contained the vitamin composition in the liquid form according to the present invention whilst mixture B contained the conventional powdered vitamin composition. The vitamin pre-mixes were added to the feed. The stability of vitamin A in both feed samples was determined over a four weeks period. The feeds were stored at 20° C. and under 80% humidity. The concentration of vitamin A in the feed was measured using conventional analytical methods (high performance liquid chromatography).

[4] = Stability of first liquid vitamin formulation (Example 1), stored at 40° C., HPLC; conditions: for CONC at T = 0: immediately after preparation; for CONC at T = 2 weeks / CONC at T = 4 weeks: stored at 40° C.
Description: as §1

Compound	CONC at T = 0 [1]	CONC at T = 1 week [1]	CONC at T = 2 weeks [1]	CONC at T = 3 weeks [1]	CONC at T = 4 weeks [1]	CONC at T = 0 [4]	CONC at T = 2 weeks [4]	CONC at T = 4 weeks [4]	also measured
O=C(O)CCCC[C@@H]1SC[C@@H]2NC(=O)N[C@@H]21 [Vitamin H, biotine]	0.021 g % g of solution	0.022 g % g of solution	0.02 g % g of solution	0.021 g % g of solution	0.021 g % g of solution				
CC1=CC(=O)c2ccccc2C1=O [Vitamin K3, menadione]									Stability of vitamin K3 in the third liquid formulation (in words) ([2]; 40° C., 4 weeks): stable; CONC at T = 0 ([2]; third formulation, immediately after preparation): 2.00 g % g of solution; CONC at T = 2 weeks ([2]; third formulation, stored at 40° C., 2 weeks): 1.93 g % g of solution; CONC at T = 4 weeks ([2]; third formulation, stored at 40° C., 4 weeks): 1.92 g % g of solution
Oil of Vitamin A						120500 UI/g	118500 UI/g	120400 UI/g	Stability of vitamin A in feed, liquid pre-mix versus powdered pre-mix (in words) [3]: as stable in the feed containing the liquid pre-mix as in the conventional powdered pre-mix
Oil of Vitamin D3						56200 UI/g	56160 UI/g	52800 UI/g	
Oil of Vitamin E						27.6%	29.1%	29.3%	
Vitamin B12						0.0202%	0.0165%	0.0157%	

Continued, in another order:

CONC at T = 0 [1]	CONC at T = 1 week [1]	CONC at T = 2 weeks [1]	CONC at T = 3 weeks [1]	CONC at T = 4 weeks [1]	CONC at T = 0 [4]	CONC at T = 2 weeks [4]	CONC at T = 4 weeks [4]	Compound	also measured
1 g % g of solution	1.08 g % g of solution	1.04 g % g of solution	1.04 g % g of solution	1.01 g % g of solution				Cc1cc2nc3c(=O)[nH]c(=O)nc-3n(C[C@H](O)[C@H](O)[C@H](O)CO)c2cc1C [Vitamin B2, riboflavin]	
8 g % g of solution	7.98 g % g of solution	7.8 g % g of solution	7.85 g % g of solution	8 g % g of solution				NC(=O)c1cccnc1 [Vitamin B3, niacinamide]	
2.63 g % g of solution	2.64 g % g of solution	2.65 g % g of solution	2.64 g % g of solution	2.69 g % g of solution				CC(C)(CO)[C@@H](O)C(=O)NCCCO [Vitamin B5, dexpanthénol]	
0.355 g % g of solution	0.32 g % g of solution	0.33 g % g of solution	0.333 g % g of solution	0.329 g % g of solution				Cc1ncc(CO)c(CO)c1O.OCl [Vitamin B6, pyridoxine chlorohydrate]	
